Tests used:
[1] = test system: Desulfovibrio alaskensis 14563; assay: H2S and Log (Growth) efficacy against SRB, 96-Well Plate Method; assay type: cell-based
Method: A lyophilized Desulfovibrio alaskensis 14563, Desulfovibrio longus 51456, and Desulfovibrio gabonensis 700201 pure cultures received from ATCC were resuspended individually in 500 ul of MB 1250. Aseptically, the content was transferred to a 5-mL tube of MB1250 medium. The cultures were incubated in an anaerobic chamber at 30° C. for 72 hrs. Subsequently, an individual stock culture with a final concentration of 25% glycerol were prepared by adding equal volumes of culture and 50% glycerol. 1 ml of the cultures were then transferred to 2-ml cryogenic vials and stored at −80° C. The purity of the stock cultures was evaluated through PCR, by amplifying the 16S rDNA region, and thus, it was verified that the original ATCC sample was a pure culture. 48-hour cultures of ATCC Desulfovibrio alaskensis 14563, Desulfovibrio longus 51456, and Desulfovibrio gabonensis 700201 were prepared in an anaerobic chamber. Each culture was prepared as a 1:10 culture by taking 1 milliliter (mL) of a pure culture and inoculating 9 milliliters (mL) of fresh MB1250 media. The Desulfovibrio alaskensis 14563 and Desulfovibrio gabonensis 700201 were all grown at 30° C. and the Desulfovibrio longus 51456 culture was grown at 35° C.
After the 48-hour incubation, 600 microliters (μL) were taken from each culture and optical density (OD) was measured using a Thermofisher Spectronic 200 Spectrophotometer at 600 nm. Each culture was diluted to 0.05 OD600 in fresh MB1250 media and added to the 96 well plates. Edge wells were not used due to their inherent variability and evaporation of the media. Each of the components were added at their respective concentrations for a final volume of 500 μL per well. In Table 3, 6 and 7, the concentrations of the compound used for the experiments are listed. Each experiment was done with at least three replicates for different treatments and non-treatment controls. […] Plates were then sealed with a titer-top and placed into anaerobic boxes and incubated in an anaerobic incubator at 30° C.
At each time point, sulfide samples were taken, and enumeration plates were made. Enumeration plates were made to determine the log growth in each dosed sample. For this process, enumeration plates were prepared by adding 180 μL fresh media MB1250 containing 0.01 wt % ferrous ammonium sulfate. 20 μL was taken from each well of the challenge plates and transferred to the enumeration plates using a 20-200 μL multichannel pipette. Enumeration plates were mixed three times using the multichannel pipette and serial diluted down the plate tenfold (20 μL into 180 μL). This serial dilution process was repeated for all challenge plate rows giving a total of 6 enumeration plates.
After 7 days these enumeration plates were read. The ferrous ammonium sulfate in each plate would be converted to iron sulfide, changing wells with SRB growth from clear to black. By counting the number of black wells in a row, the log growth from the original well in the challenge plate can be determined.
To determine hydrogen sulfide production in each sample, sulfide samples were also taken from each challenge plate. From each well, 9 μL were taken and added to 60 μL of 2% zinc acetate with 0.02% acetic acid. Then, 180 μL of milliQ water was added. 60 μL of stock solution 1 containing 64% sulfuric acid, <1% Dimethyl-4-phenylenediamine (DMPD), water to 100% was added to each well on the plates. This was followed by 3 μL of stock solution 3 containing 50% Iron (III) chloride. All chemicals are ordered from Fisher Scientific and used as received. These were mixed three times and read after 15 minutes. The plates were read at 670 nm using a Biotek microplate reader. Absorbance readings were converted to mM using a standard curve and this was converted to parts per million using the molar mass of sulfur. The standard curves were made using sodium sulfide nonahydrate solutions to give final solutions of 0, 0.125, 0.25 0.5, 1.0, and 1.5 ppm.

[2] = test system: sulfate reducing bacteria; assay: Efficacy in inhibiting H2S production from sulfate reducing bacteria; assay type: cell-based
Method: To understand the hydrogen sulfide inhibition efficacy of the N-hydroxycarboxamide compounds of the present invention, several compounds were tested. Some compounds that can be used in this H2S inhibiting composition are disclosed in Table 2. For the testing procedures, the compounds were dissolved in DMSO, resulting in a stock solution of about 8000-100000 ppm, which was subsequently diluted in 96-well plates or 10 mL serum vials containing media and selected culture to give varying concentrations from 0.09 to 1000 ppm of the compounds in final solution for efficacy testing.
Strains of commonly found bacteria were used for testing the efficacy of the compounds, viz. Desulfovibrio alaskensis, Desulfovibrio longus and Desulfovibrio gabonensis. Media for the cultures was also prepared by using a standard method. The cultures were aseptically used and incubated under anaerobic conditions. Two well established methods were used for testing various compounds:
The compounds C1, C12, C14, C15 and C16 were tested individually to understand each of their efficacies in inhibiting the H2S production from sulfate reducing bacteria, under standard temperature and pressure conditions. The efficacy of compounds C14 and C15 against hydrogen sulfide production are disclosed in Example 1, Tables 6 and 7.

`O=C(CCCN1C(=O)c2cccc3cccc(c23)C1=O)NO` [C12] was tested, and the H2S ([1]; Table 6 run, 2 days, 7.615 PPM) was 77.6 PPM, the “Log (Growth)” value ([1]; Table 6 run, 2 days, 7.615 PPM) was 7 and the H2S ([1]; Table 6 run, 2 days, 15.75 PPM) was 115.3 PPM. The “Log (Growth)” value ([1]; Table 6 run, 2 days, 15.75 PPM) was 7.5, the H2S ([1]; Table 6 run, 2 days, 31.25 PPM) was 90.1 PPM and the “Log (Growth)” value ([1]; Table 6 run, 2 days, 31.25 PPM) was 7.0. For the same molecule, the H2S ([1]; Table 6 run, 2 days, 125 PPM) was 91.4 PPM, the “Log (Growth)” value ([1]; Table 6 run, 2 days, 125 PPM) was 7.0 and the H2S ([1]; Table 6 run, 2 days, 500 PPM) was 8.7 PPM. The “Log (Growth)” value ([1]; Table 6 run, 2 days, 500 PPM) was 0.0, the H2S ([1]; Table 6 run, 2 days, 1000 PPM) was 5.4 PPM and the “Log (Growth)” value ([1]; Table 6 run, 2 days, 1000 PPM) was 0.0. For the same molecule, the H2S ([1]; Table 6 run, 5 days, 7.615 PPM) was 17.5 PPM, the “Log (Growth)” value ([1]; Table 6 run, 5 days, 7.615 PPM) was 8.0 and the H2S ([1]; Table 6 run, 5 days, 15.75 PPM) was 26.7 PPM. The “Log (Growth)” value ([1]; Table 6 run, 5 days, 15.75 PPM) was 8.0, the H2S ([1]; Table 6 run, 5 days, 31.25 PPM) was 42.5 PPM and the “Log (Growth)” value ([1]; Table 6 run, 5 days, 31.25 PPM) was 7.0. The H2S ([1]; Table 6 run, 5 days, 125 PPM) was 21.3 PPM, the “Log (Growth)” value ([1]; Table 6 run, 5 days, 125 PPM) was 3.0 and the H2S ([1]; Table 6 run, 5 days, 500 PPM) was 6.1 PPM. For the same molecule, the “Log (Growth)” value ([1]; Table 6 run, 5 days, 500 PPM) was 0.0, the H2S ([1]; Table 6 run, 5 days, 1000 PPM) was 4.8 PPM and the “Log (Growth)” value ([1]; Table 6 run, 5 days, 1000 PPM) was 0.0. The H2S ([1]; Table 7 run, 2 days, 7.615 PPM) was 67.5 PPM, the “Log (Growth)” value ([1]; Table 7 run, 2 days, 7.615 PPM) was 8.0 and the H2S ([1]; Table 7 run, 2 days, 15.75 PPM) was 43.7 PPM. For the same molecule, the “Log (Growth)” value ([1]; Table 7 run, 2 days, 15.75 PPM) was 7.3, the H2S ([1]; Table 7 run, 2 days, 31.25 PPM) was 18.2 PPM and the “Log (Growth)” value ([1]; Table 7 run, 2 days, 31.25 PPM) was 7.5. For the same molecule, the H2S ([1]; Table 7 run, 2 days, 125 PPM) was 12.2 PPM, the “Log (Growth)” value ([1]; Table 7 run, 2 days, 125 PPM) was 5.0 and the H2S ([1]; Table 7 run, 2 days, 500 PPM) was 2.2 PPM. For the same molecule, the “Log (Growth)” value ([1]; Table 7 run, 2 days, 500 PPM) was 3.0, the H2S ([1]; Table 7 run, 2 days, 1000 PPM) was 1.8 PPM and the “Log (Growth)” value ([1]; Table 7 run, 2 days, 1000 PPM) was 2.5. The H2S ([1]; Table 7 run, 5 days, 7.615 PPM) was 30.6 PPM, the “Log (Growth)” value ([1]; Table 7 run, 5 days, 7.615 PPM) was 7.3 and the H2S ([1]; Table 7 run, 5 days, 15.75 PPM) was 34.4 PPM. The “Log (Growth)” value ([1]; Table 7 run, 5 days, 15.75 PPM) was 6.7, the H2S ([1]; Table 7 run, 5 days, 31.25 PPM) was 15.1 PPM and the “Log (Growth)” value ([1]; Table 7 run, 5 days, 31.25 PPM) was 5.5. For the same molecule, the H2S ([1]; Table 7 run, 5 days, 125 PPM) was 6.2 PPM, the “Log (Growth)” value ([1]; Table 7 run, 5 days, 125 PPM) was 5.0 and the H2S ([1]; Table 7 run, 5 days, 500 PPM) was 1.9 PPM. The “Log (Growth)” value ([1]; Table 7 run, 5 days, 500 PPM) was 0.0, the H2S ([1]; Table 7 run, 5 days, 1000 PPM) was 2.0 PPM and the “Log (Growth)” value ([1]; Table 7 run, 5 days, 1000 PPM) was 0.0. For the same molecule, the “efficacy for inhibiting hydrogen sulfide production” value ([2]; anaerobic conditions) was “high efficacy”.

For `O=C(CCCCCCC(=O)NO)NO` [C14], the H2S ([1]; Table 6 run, 2 days, 7.615 PPM) was 71.3 PPM, the “Log (Growth)” value ([1]; Table 6 run, 2 days, 7.615 PPM) was 7.0 and the H2S ([1]; Table 6 run, 2 days, 15.75 PPM) was 56.4 PPM. For the same molecule, the “Log (Growth)” value ([1]; Table 6 run, 2 days, 15.75 PPM) was 8.0, the H2S ([1]; Table 6 run, 2 days, 31.25 PPM) was 56.3 PPM and the “Log (Growth)” value ([1]; Table 6 run, 2 days, 31.25 PPM) was 7.3. The H2S ([1]; Table 6 run, 2 days, 125 PPM) was 131.9 PPM, the “Log (Growth)” value ([1]; Table 6 run, 2 days, 125 PPM) was 8.0 and the H2S ([1]; Table 6 run, 2 days, 500 PPM) was 54.6 PPM. The “Log (Growth)” value ([1]; Table 6 run, 2 days, 500 PPM) was 7.7, the H2S ([1]; Table 6 run, 2 days, 1000 PPM) was 117.5 PPM and the “Log (Growth)” value ([1]; Table 6 run, 2 days, 1000 PPM) was 7.7. For the same molecule, the H2S ([1]; Table 6 run, 5 days, 7.615 PPM) was 45.6 PPM, the “Log (Growth)” value ([1]; Table 6 run, 5 days, 7.615 PPM) was 7.3 and the H2S ([1]; Table 6 run, 5 days, 15.75 PPM) was 34.7 PPM. For the same molecule, the “Log (Growth)” value ([1]; Table 6 run, 5 days, 15.75 PPM) was 7.3, the H2S ([1]; Table 6 run, 5 days, 31.25 PPM) was 29.0 PPM and the “Log (Growth)” value ([1]; Table 6 run, 5 days, 31.25 PPM) was 7.3. For the same molecule, the H2S ([1]; Table 6 run, 5 days, 125 PPM) was 45.0 PPM, the “Log (Growth)” value ([1]; Table 6 run, 5 days, 125 PPM) was 7.3 and the H2S ([1]; Table 6 run, 5 days, 500 PPM) was 42.2 PPM. For the same molecule, the “Log (Growth)” value ([1]; Table 6 run, 5 days, 500 PPM) was 7.0, the H2S ([1]; Table 6 run, 5 days, 1000 PPM) was 38.6 PPM and the “Log (Growth)” value ([1]; Table 6 run, 5 days, 1000 PPM) was 8.0. For the same molecule, the “activity in reducing H2S production” value ([2]; Tables 6 and 7) was “did not show significant activity”.

Source: patent US20230183640A1, “METABOLIC INHIBITORS WITH EFFICACY FOR INHIBITING SULFIDE PRODUCTION IN HARSH ENVIRONMENTS” (MC (US) 3 LLC, priority 2020, published 2023)
